Experimental data published in patent US5677292A, “Derivatives of estra 1,3,5(10)triene-17-one,3-amino compounds and their use” (Duquesne University of the Holy Ghost, priority 1996, dated 1997).
“Also recorded” adds a separate entry of the source.

Tests used:
[1] = system: uterine weight of ovariectomized rats; experiment: Ovariectomized rat uterine weight gain assay: estrogenicity; conditions: for Estrogenicity: increase in uterine weight of ovariectomized rats compared with control / Uterine weight compared with other groups (control and E1 -NH2): 25 μg/day, i.p., seven days; for Estrogenicity: increase in uterine weight of ovariectomized rats compared with control: n=5; for Uterine weight compared with other groups (control and E1 -NH2): Student-Newman-Keuls test
Experimental: Estrogenicity and antiestrogenicity were assessed using an ovariectomized rat uterine weight gain assay. […] Ovariectomized rats were maintained two weeks prior to treatment to allow their uteri to regress to basal size. Treatments were given by intraperitoneal injection in a 1% gelatin, 0.9% NaCl solution at a volume of 0.5 ml. Steroids were dissolved in ethanol to 1 mg/ml then further diluted into the injection solution to the desired concentration. All treatments were continued for seven days. At the termination of the experiments, animals were sacrificed by cervical dislocation under ether anesthesia. Body weight was taken, then uteri were excised, stripped of fat, and weighed to the nearest 0.1 mg.
(§1) Steroids were administered at 25 μg/day. For determination of antiestrogenicity, three treatment groups were established: vehicle control, estrone, and estrone E1 NH2.
A rat uterine weight gain assay was used to determine if E1 -NH2 had estrogenic or anti-estrogenic activity. […] Data are means ±SEM, n=5 for all groups. Control animals received vehicle only (0.9% NaCl, 1% gelatin, 500 μl,i.p. injection).

[2] = target: T1, rat uterine estrogen receptor (Rattus norvegicus, UniProt P06211); experiment: Estrogen receptor binding, displacement of 3H-estradiol in rat uterine cytosol
T1 sequence (P06211 1-600): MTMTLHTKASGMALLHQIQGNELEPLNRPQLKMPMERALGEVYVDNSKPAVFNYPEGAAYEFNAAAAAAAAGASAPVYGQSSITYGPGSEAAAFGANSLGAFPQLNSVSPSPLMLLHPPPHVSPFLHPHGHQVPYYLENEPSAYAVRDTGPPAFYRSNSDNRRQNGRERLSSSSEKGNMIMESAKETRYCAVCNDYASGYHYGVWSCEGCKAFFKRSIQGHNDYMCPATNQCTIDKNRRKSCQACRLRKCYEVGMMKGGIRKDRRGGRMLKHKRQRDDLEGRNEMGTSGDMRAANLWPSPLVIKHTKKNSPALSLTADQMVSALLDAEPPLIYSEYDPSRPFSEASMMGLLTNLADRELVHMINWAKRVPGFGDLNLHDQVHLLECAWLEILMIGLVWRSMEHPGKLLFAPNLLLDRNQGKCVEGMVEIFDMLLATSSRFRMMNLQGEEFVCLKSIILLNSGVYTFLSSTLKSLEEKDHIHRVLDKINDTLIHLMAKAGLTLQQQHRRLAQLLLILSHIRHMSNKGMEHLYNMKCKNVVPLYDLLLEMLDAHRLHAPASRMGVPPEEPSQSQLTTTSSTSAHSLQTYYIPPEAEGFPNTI
Experimental: Specific binding was calculated as total binding minus nonspecific binding.

[3] = system: estrone-induced uterine weight gain in ovariectomized rats; experiment: Ovariectomized rat uterine weight gain assay: anti-estrogenicity (block of estrone-induced uterine weight gain); assay type: in vivo
Experimental: Estrogenicity and antiestrogenicity were assessed using an ovariectomized rat uterine weight gain assay. […] Ovariectomized rats were maintained two weeks prior to treatment to allow their uteri to regress to basal size. Treatments were given by intraperitoneal injection in a 1% gelatin, 0.9% NaCl solution at a volume of 0.5 ml. Steroids were dissolved in ethanol to 1 mg/ml then further diluted into the injection solution to the desired concentration. All treatments were continued for seven days. At the termination of the experiments, animals were sacrificed by cervical dislocation under ether anesthesia. Body weight was taken, then uteri were excised, stripped of fat, and weighed to the nearest 0.1 mg. In vivo, estradiol and estrone can induce uterine weight gain in female ovariectomized rats.
as §1
Antiestrogenicity was assessed as the ability of the compound to block estrone-induced uterine weight gain in ovariectomized rats. […] Control animals received vehicle only (0.9% NaCl, 1% gelatin, 500 μl. i.p. injection).

[4] = system: nitrosomethyl urea-induced tumor cells in castrated rats; conditions: cited from earlier work

C[C@]12CC[C@@H]3c4ccc(O)cc4CC[C@H]3[C@@H]1CCC2=O [estrone]
Estrogenicity: increase in uterine weight of ovariectomized rats compared with control [1]: significantly increased uterine weight above control levels | Uterine weight compared with other groups (control and E1 -NH2) [1]: significantly (p≤0.05) higher than other groups

C[C@]12CC[C@@H]3c4ccc(N)cc4CC[C@H]3[C@@H]1CCC2=O [E1 -NH2, estra-1,3,5(10)-triene-17-one, 3-amine]
Competition for / interaction with estrogen receptor ([2]; rat uterine cytosol, 0.01, 0.1 and 1 μM competitor): did not compete for estrogen receptor at the same level as estrone; also recorded: does not interact to any great extent with an estrogen receptor | inhibition at 1 µM ([2]; read-out: Displacement of specific 3H-estradiol binding): 60% | Anti-estrogenicity: block of estrone-induced uterine growth ([3]; E1 -NH2 100 μg/day with estrone 2 μg/day, i.p., seven days, n=5): did not block estrone-induced uterine growth | Anti-estrogenicity (conclusion) ([3]; FIGS. 4 and 5): neither estrogenic nor anti-estrogenic | Estrogenicity: increase in uterine weight of ovariectomized rats compared with control [1]: did not cause a significant increase in uterine weight | Estrogenicity (conclusion) ([1]; FIGS. 4 and 5): neither estrogenic nor anti-estrogenic

C[C@]12CC[C@@H]3c4ccc(O)cc4CC[C@H]3[C@@H]1CC[C@@H]2O [estradiol, estradiol-17β]
Estrogenicity: increase in uterine weight of ovariectomized rats compared with control [1]: significantly increased uterine weight above control levels | Uterine weight compared with other groups (control and E1 -NH2) [1]: significantly (p≤0.05) higher than other groups

estrone sulfate
Stimulation of tumor cell growth [4]: stimulate growth of nitrosomethyl urea-induced tumor cells in castrated rats
